Read-outs that look alike come from different tables or passages of the source.
What was measured:
[1] = test system: rat complete Freund's adjuvant (CFA) model of arthritis pain; experiment: Rat complete Freund's adjuvant (CFA) model of arthritis pain, paw compression threshold (Randall-Selitto); format: in vivo; details: evaluated day 14 post CFA
Method: The effect of orally administered zoledronic acid on arthritis pain was examined in the rat complete Freund's adjuvant (CFA) model of arthritis pain. In this model, injection of 100% complete Freund's adjuvant (CFA) in a […] volume into the left hind paws is followed by a 10-14 day period to allow for the development of arthritis pain. Animals were orally administered vehicle (control), zoledronic acid 54 mg/m^2 (or 9 mg/kg), or zoledronic acid 360 mg/m^2 (or 60 mg/kg), divided in three equal daily doses on the first three days post CFA injection. Drug was dissolved in distilled water and prepared fresh daily. Animals were fasted prior to dosing.
Arthritis pain (mechanical hyperalgesia) in the vehicle and drug-treated animals was evaluated on day 14 post CFA injection using a digital Randall-Selitto device (dRS; IITC Life Sciences, Woodland Hills, Calif.). Animals were placed in a restraint sling that suspended the animal, leaving the hind limbs available for testing. Paw compression threshold was measured by applying increasing pressure to the plantar surface of the hind paw with a dome-shaped tip placed between the 3rd and 4th metatarsus. Pressure was applied gradually over approximately 10 seconds. […]
Reversal of arthritis pain in the ipsilateral (CFA-injected) paw was calculated according to the formula: […]

[2] = test system: rat complete Freund's adjuvant (CFA) model of inflammatory pain; format: in vivo, Sprague-Dawley rats; details: for improvement in pain threshold from baseline: day three
Method: The effect of orally administered zoledronic acid on inflammatory pain was examined using the rat complete Freund's adjuvant (CFA) model. Inflammatory pain was induced by injection of 100% CFA in a 75 μL volume into the left hind paws of Sprague-Dawley rats on day 0, followed by assessments on days 1-3. Animals were orally administered vehicle (control), zoledronic acid 18 mg/m^2 (or 3 mg/kg), zoledronic acid 120 mg/m^2 (or 20 mg/kg), or zoledronic acid 900 mg/m^2 (or 150 mg/kg) daily on days 1-3. Drug was dissolved in distilled water and prepared fresh daily. Animals were fasted prior to dosing. Under current FDA guidelines for extrapolating starting dosages from animals to humans, dosages expressed in mg/m^2 are considered equivalent between mammalian species. Thus, for example, 18 mg/m^2 in a rat is considered equivalent to 18 mg/m^2 in a human being, while 3 mg/kg in a rat may not be equivalent to 3 mg/kg in a human being.
Values for inflammatory pain (mechanical hyperalgesia) in the vehicle and drug-treated animals were obtained on day 0 prior to CFA injection, and at baseline and post-treatment on days 1-3. Pain was assessed using a digital Randall-Selitto device (dRS; IITC Life Sciences, Woodland Hills, Calif.). Animals were placed in a restraint sling that suspended the animal, leaving the hind limbs available for testing. Paw compression threshold was measured by applying increasing pressure to the plantar surface of the hind paw with a dome-shaped tip placed between the 3rd and 4th metatarsus. Pressure was applied gradually over approximately 10 seconds. Measurements were taken from the first observed nocifensive behavior of vocalization, struggle or withdrawal. A cut-off value of 300 g was used to prevent injury to the animal.
Reversal of inflammatory pain was calculated according to the formula:
% reversal=(Post-treatment−Post-CFA baseline)/(Pre-CFA baseline−Post-CFA baseline)×100.
The experiment was carried out using 9-10 animals per group.

physchem = experiment: physchem
Method: The aqueous solubility of zoledronic acid and disodium zoledronate tetrahydrate was determined. One gram of the test compound was measured in to a beaker. Demineralized water (pH 5.5) was then added in small increments to the test compound, and sonification was applied to the mixture. The procedure was continued until complete dissolution was achieved. Full dissolution was determined to have been reached when a clear solution was present with no visible material. The volume of water required to reach full dissolution was used to calculate a solubility value expressed in grams per 100 mL. The procedure was performed for each compound.

[3] = test system: rat tibia fracture model of complex regional pain syndrome (CRPS); experiment: Rat tibia fracture model of complex regional pain syndrome (CRPS): hindpaw pain, weight bearing, edema, warmth; format: in vivo; details: oral 18 mg/m^2/day (3 mg/kg/day) for 28 days
Method: The effect of orally administered zoledronic acid was examined in the rat tibia fracture model of complex regional pain syndrome (CRPS). CRPS was induced in the rats by fracturing the right distal tibias of the animals and casting the fractured hindpaws for 4 weeks, as described in Guo T Z et al. (Pain. 2004; 108:95-107).
Animals were orally administered either vehicle (control) or zoledronic acid, in a dosage of 18 mg/m^2/day (3 mg/kg/day) for 28 days, starting on the day of fracture and casting. Drug was dissolved in distilled water and administered by gavage. Animals were fasted for 4 hours before and 2 hours after dosing. At the end of the 28-day period, casts were removed, and on the following day, the rats were tested for hindpaw pain, edema, and warmth.
Pain was assessed by measuring hyperalgesia, and weight bearing.
To measure hyperalgesia, an up-down von Frey testing paradigm was used. Rats were placed in a clear plastic cylinder (20 cm in diameter) with a wire mesh bottom and allowed to acclimate for 15 minutes. The paw was tested with one of a series of eight von Frey hairs ranging in stiffness from 0.41 g to 15.14 g. The von Frey hair was applied against the hindpaw plantar skin at approximately midsole, taking care to avoid the tori pads. The fiber was pushed until it slightly bowed and then it was jiggled in that position for 6 seconds. Stimuli were presented at an interval of several seconds. Hindpaw withdrawal from the fiber was considered a positive response. The initial fiber presentation was 2.1 g and the fibers were presented according to the up-down method of Dixon to generate six responses in the immediate vicinity of the 50% threshold. […].
An incapacitance device (IITC Inc. Life Science, Woodland, Calif., USA) was used to measure hindpaw weight bearing, a postural effect of pain. The rats were manually held in a vertical position over the apparatus with the hindpaws resting on separate metal scale plates and the entire weight of the rat was supported on the hindpaws. The duration of each measurement was 6 seconds and 10 consecutive measurements were taken at 60-second intervals. Eight readings (excluding the highest and lowest ones) were averaged to calculate the bilateral hindpaw weight-bearing values. Weight bearing data were analyzed as the ratio between right (fracture) and left hindpaw weight bearing values ((2R/(R+L))×100%).
A laser sensor technique was used to determine the dorsal-ventral thickness of the hindpaw. Before baseline testing the bilateral hindpaws were tattooed with a 2 to 3 mm spot on the dorsal skin over the midpoint of the third metatarsal. […]
The temperature of the hindpaw was measured using a fine wire thermocouple (Omega, Stanford, Conn., USA) applied to the paw skin. […]

[4] = oral 18 mg/m^2 (3 mg/kg) daily on days 1-3
[5] = oral 900 mg/m^2 (150 mg/kg) daily on days 1-3

Row | SMILES | reversal of arthritis pain ([1]; oral 54 mg/m^2 (9 mg/kg) in three equal daily doses) [%] | reversal of arthritis pain ([1]; oral 360 mg/m^2 (60 mg/kg) in three equal daily doses) [%] | reversal of inflammatory pain [2, 4] [%] | improvement in pain threshold from baseline [2, 4] [%] | paw compression thresholds versus vehicle ([2]; oral 18 mg/m^2, entire measurement period after 30 minutes from start of treatment) | paw compression thresholds versus vehicle ([2]; oral 120 mg/m^2 (20 mg/kg) daily, all time points during the assessment period) | reversal of inflammatory pain [2, 5] [%] | improvement in pain threshold from baseline [2, 5] [%] | toxicity ([2]; oral 900 mg/m^2 (150 mg/kg) daily on days 1-3, two days after cessation of dosing) | paw compression thresholds versus vehicle ([2]; two higher doses (120 and 900 mg/m^2), first two days of dosing) | solubility (physchem; pH 5.5, water, thermodynamic from solid) [µg/mL] | reduction of hindpaw warmth versus vehicle [3] [%] | reversal of fracture induced pain (von Frey threshold) as compared to vehicle [3] [%] | hindlimb weight bearing, % of normal ([3]; fracture hindlimb) | reduction of hindpaw edema versus vehicle ([3]; hindpaw thickness) [%] | aqueous solubility (physchem; pH 5.5) [g/100 mL]
1 | O=P(O)(O)C(O)(Cn1ccnc1)P(=O)(O)O [zoledronic acid] | 33 | 54 | 29 | 49 | higher than for vehicle | approximately equal or inferior to vehicle | 48 | 83 | significant toxicity necessitating euthanization of all the animals in this group | lower than vehicle | ≥ 2500 | 5 | 77 | 86 % of normal | 60 | –
2 | O.O.O.O.O=P([O-])(O)C(O)(Cn1ccnc1)P(=O)([O-])O.[Na+].[Na+] [disodium zoledronate tetrahydrate] | – | – | – | – | – | – | – | – | – | – | – | – | – | – | – | ≥ 12.5

— patent publication US20130303485A1, “Compositions for Oral Administration of Zoledronic Acid or Related Compounds for Treating Disease” (priority 2012, published 2013)
